Like-named read-outs stand apart in the source and are kept apart here. One block for each molecule: values may come before it.
Assays:
[1] = tested on: BCR-abl positive cell line K562; experiment: MTT cell proliferation assay, K562; type: cell-based; conditions: Homo sapiens, read-out: IC50 values obtained from MTT assay
Method: (§1) All the experimental compounds were evaluated for in vitro efficacy employing standard cell lines used for the screening of anti-cancer compounds.
(§2) In Vitro Studies of NRC-21T on BCR-abl Positive Cell Line K562 and Mutant Cell Lines Baf3/T315i, M351T, E255K and WT.
(§3) The stock solution was further diluted with the same cell culture medium and used in concentrations of 0.1 nm to 10 μm. Cell proliferation by MTT assay was done as follows. 1000 to 10,000 cells were seeded per well in 96-well plate and different concentrations of […] ranging from 10 μm to 0.1 nM were added in triplicates. After incubating the cells with NRC-21T for the required time period 24-72 hrs, 15 μl of 5 mg/ml MTT was added and incubated for additional 4 hours at 37° C. and 5% CO2. After 4 hrs, formazan crystals were dissolved in solubilizing buffer overnight at 37° C. Absorbance was measured on Elisa reader at dual wavelength of 570-630-nm. By MTT assay the IC50 values of the NRC21T were computed. […] (FIG. 3)

[2] = molecular target: Baf3/WT (Homo sapiens, UniProt P00519); experiment: MTT cell proliferation assay, Baf3/WT; type: cell-based; conditions: Table 1A, 24-72 hrs incubation, read-out: IC50 values obtained from MTT assay
Method: as §1, §2, §3

[3] = in vivo; conditions: both, Swiss Albino, mouse
[4] = tested on: T315I cell Line; experiment: Survival time in SCID Mice injected with T315I cell line; type: in vivo; conditions: T315I cells i.v., 30 days dosing, NRC21T 200 mg/kg p.o, Ponatinib 10 mg/kg p.o
[5] = tested on: T315I induced tumour; experiment: Antagonism in T315I induced tumour in Nude Mice; type: in vivo; conditions: for Tumour volume after treatment (Mean ± SEM): daily oral, NRC21T 200 mg/kg, Ponatinib 50 mg/kg
Method: The study was carried out with 18 Nude Mice (9 Male+9 Female).
The cell line was inoculated into Nude Mice subcutaneously to the right hind limb flank at a strength of 1×10^6 cells/0.2 ml. Animals were observed daily for the appearance of tumour. The tumour volume was measured using the formula ½ l×w^2 (l=length of tumour & w=width of tumour). When the mean tumour volume was recorded above 400 mm^3, the treatment with the above drugs was started. The above drugs were administered orally daily for 30 days. Weights of Nude Mice were taken daily before dosing and tumour measurements were done on alternative days using digital Vernier caliper. Surviving animals were sacrificed after the dosing was complete for 30 days and the organs (tumour with skin and spleen) were collected.

[6] = molecular target: Baf3/M351T (Homo sapiens, UniProt P00519, M351T, cells depend on it); experiment: MTT cell proliferation assay, Baf3/M351T; type: cell-based; conditions: Table 1A, 24-72 hrs incubation, read-out: IC50 values obtained from MTT assay
Method: as §1, §2, §3

[7] = tested on: BaF3/T315i mutant Leukemia cancer cells; experiment: Matrigel invasion assay; type: cell-based; conditions: matrigel transwell, 72 hrs, specified concentration
[8] = molecular target: Baf3/T315I (Homo sapiens, UniProt P00519, T315I, cells depend on it); experiment: MTT cell proliferation assay, Baf3/T315I; type: cell-based; conditions: read-out: IC50 values obtained from MTT assay
Method: as §1, §2, §3

[9] = molecular target: Baf3/E255K (Homo sapiens, UniProt P00519, E255K, cells depend on it); experiment: MTT cell proliferation assay, Baf3/E255K; type: cell-based; conditions: Table 1A, 24-72 hrs incubation, read-out: IC50 values obtained from MTT assay
Method: as §1, §2, §3

SMILES: Cc1ccc(C(=O)Nc2ccc(CN3CCN(C)CC3)c(C(F)(F)F)c2)cc1C#Cc1cnc2[nH]c(=O)ccc2c1 [NRC21T, 4-Methyl-N-[4-[(4-methylpiperazin-1-yl)methyl]-3-(trifluoromethyl)phenyl]-3-[2-(7-oxo-8H-1,8-naphthyridin-3-yl)ethynyl]benzamide]
- IC50 ([1]; Table 1A, 24-72 hrs incubation): 0.007 µM
- GI50 [2]: 0.011 µM
- MTD at 14 days [3]: > 2000 mg/kg
- Mean Survival Time (Mean ± SEM) [4]: 36 ± 0 days
- Tumour volume after treatment (Mean ± SEM) ([5]; 3rd Day): 721.18 ± 141.41 mm^3
- Tumour volume after treatment (Mean ± SEM) ([5]; 5th Day): 183.97 ± 8.66 mm^3
- Tumour volume after treatment (Mean ± SEM) ([5]; 7th Day): 106.59 ± 11.90 mm^3
- Tumour volume after treatment (Mean ± SEM) ([5]; 9th Day): 83.21 ± 8.83 mm^3
- Tumour volume after treatment (Mean ± SEM) ([5]; 11th Day): 48.88 ± 4.36 mm^3
- Tumour volume after treatment (Mean ± SEM) ([5]; 13th Day): 10.61 ± 2.3 mm^3
- Initial tumour volume (Mean ± SEM) ([5]; before treatment, NRC21T 200 mg/kg p.o, Ponatinib 50 mg/kg p.o groups): 921.35 ± 176.32 mm^3
- GI50 [6]: 0.002 µM
- Percentage of Anti-invasion property [7]: 28%
- GI50 ([8]; Table 1A, Baf3/T315I, 24-72 hrs incubation): 0.014 µM
- GI50 [9]: 0.016 µM

- IC50 ([1]; Table 1B): 0.009 µM
- GI50 ([8]; Table 1B, T315I): 1.51 µM
SMILES: Cc1ccc(NC(=O)c2cccc(C(F)(F)F)c2)cc1C#Cc1cnc2[nH]c(=O)ccc2c1 [NRC-13T, N-[4-Methyl-3-[2-(7-oxo-8H-1,8-naphthyridin-3-yl)ethynyl]phenyl]-3-(trifluoromethyl)benzamide]

- IC50 ([1]; Table 1B): 0.008 µM
- GI50 ([8]; Table 1B, T315I): 1.04 µM
SMILES: Cc1ccc(C(=O)Nc2cccc(C(F)(F)F)c2)cc1C#Cc1cnc2[nH]c(=O)ccc2c1 [NRC-14T, 4-Methyl-3-[2-(7-oxo-8H-1,8-naphthyridin-3-yl)ethynyl]-N-[3-(trifluoromethyl)phenyl]benzamide]

- IC50 ([1]; Table 1B): 0.02 µM
- GI50 ([8]; Table 1B, T315I): 7.69 µM
SMILES: Cc1ccc(NC(=O)c2cc(C(F)(F)F)cc(C(F)(F)F)c2)cc1C#Cc1cnc2[nH]c(=O)ccc2c1 [NRC-15T, N-[4-Methyl-3-[2-(7-oxo-8H-1,8-naphthyridin-3-yl)ethynyl]phenyl]-3,5-Bis(trifluoromethyl)benzamide]

- GI50 ([8]; Table 1B, T315I): > 10 µM
SMILES: Cc1ccc(C(=O)Nc2cc(C(F)(F)F)cc(C(F)(F)F)c2)cc1C#Cc1cnc2[nH]c(=O)ccc2c1 [NRC-16T, N-[3,5-Bis(trifluoromethyl)phenyl]-4-methyl-3-[2-(7-oxo-8H-1,8-naphthyridin-3-yl)ethynyl]benzamide]

- IC50 ([1]; Table 1B): 0.021 µM
- GI50 ([8]; Table 1B, T315I): 0.712 µM
SMILES: Cc1ccc(C(=O)Nc2cc(CN3CCN(C)CC3)cc(C(F)(F)F)c2)cc1C#Cc1cnc2[nH]c(=O)ccc2c1 [NRC-17T, 4-Methyl-N-[3-[(4-methylpiperazin-1-yl)methyl]-5-(trifluoromethyl)phenyl]-3-[2-(7-oxo-8H-1,8-naphthyridin-3-yl)ethynyl]benzamide]

- GI50 ([8]; Table 1B, T315I): 0.228 µM
SMILES: Cc1cn(-c2cc(NC(=O)c3ccc(C)c(C#Cc4cnc5[nH]c(=O)ccc5c4)c3)cc(C(F)(F)F)c2)cn1 [NRC-18T, 4-Methyl-N-[3-(4-methylimidazol-1-yl)-5-(trifluoromethyl)phenyl]-3-[2-(7-oxo-8H-1,8-naphthyridin-3-yl)ethynyl]benzamide]

- IC50 ([1]; Table 1B): 0.007 µM
- GI50 ([8]; Table 1B, T315I): 0.334 µM
SMILES: Cc1ccc(NC(=O)c2ccc(CN3CCN(C)CC3)c(C(F)(F)F)c2)cc1C#Cc1cnc2[nH]c(=O)ccc2c1 [NRC-19T, N-[4-Methyl-3-[2-(7-oxo-8H-1,8-naphthyridin-3-yl)ethynyl]phenyl]-4-[(4-methylpiperazin-1-yl)methyl]-3-(trifluoromethyl)benzamide]

- IC50 ([1]; Table 1B): 0.033 µM
- GI50 ([8]; Table 1B, T315I): 0.155 µM
SMILES: Cc1ccc(C(=O)Nc2ccc(CN3CCN(C)CC3)c(C(F)(F)F)c2)cc1/C=C/c1cnc2[nH]c(=O)ccc2c1 [NRC-20T, 4-Methyl-N-[4-[(4-methylpiperazin-1-yl)methyl]-3-(trifluoromethyl)phenyl]-3-[(E)-2-(7-oxo-8H-1,8-naphthyridin-3-yl)vinyl]benzamide]

SMILES: Cc1ccc(C(=O)Nc2ccc(CN3CCN(C)CC3)c(C(F)(F)F)c2)cc1C#Cc1cnc2cccnn12 [Ponatinib, reference compound]
- Mean Survival Time (Mean ± SEM) [4]: 36 ± 0 days
- Percentage of Anti-invasion property [7]: 12%

Reference: US10047088B2, “1H-1,8-naphthyridin-2-ones as anti proliferative compounds” (NATCO PHARMA LIMITED, priority 2014, dated 2018)
